Experimental findings from PMC10403574, “Discovery of a pyrrole-pyridinimidazole derivative as novel SIRT6 inhibitor for sensitizing pancreatic cancer to gemcitabine” (Cell Death & Disease, 2023) are described below.

For one series, the target named is HDAC1 (Homo sapiens, UniProt Q13547). Kind of series: Deacetylation activity selectivity, HDAC1. Format: biochemical. From the text:
(§1) Based on the above results, 8a was further investigated in this study. […] To further evaluate the selectivity of 8a for SIRT6, we examined the effect of 8a on the deacetylation activity of other HDAC family members, including HDAC1-HDAC11, SIRT1-SIRT3 and SIRT5. […] Furthermore, to confirm binding of 8a to SIRT6 in cells, we carried out the cellular thermal shift assay (CETSA). The CETSA approach builds on the thermal shift assay concept where ligand binding to its target protein enhances the target protein stability. We observed that the thermal stability of SIRT6 increased after 8a treatment (Figs. 2c, d).

The nature of series [1]: Glucose uptake and insulin secretion in vivo. Conditions: mice, 8a 10, 20, 30 mg/kg i.p. + glucose 2 g/kg vs glucose group; short term and long term (2 weeks). The arrangement: species or system C57BL/6 mice. How it is done:
Male C57BL/6 mice (18 ± 2 g, 5 weeks old) were randomly divided into four groups with six mice per group. Acute drug toxicity test was performed. Mice were fasted for 6 h, and basal blood glucose and serum insulin levels were measured by using Accu-Check Performa (Roche, Swiss) glucose meter and Mouse Insulin ELISA kit (Solarbio). Compound 8a (10, 20, 30 mg/kg) was intraperitoneally injected for 10 min, followed by glucose (2 g/kg) intraperitoneally injected. The blood glucose concentration was measured at 30 and 60 min after glucose injection, and the serum insulin content of mice was measured at 60 min. Compound 8a was treated every other day for 2 weeks and tested for chronic drug toxicity. According to the above method, the serum glucose and insulin content of mice were measured.

The target in another series is HDAC7 (Homo sapiens, UniProt Q8WUI4). Briefly: Deacetylation activity selectivity, HDAC7. It is filed as biochemical.
From the text: as §1

A further series deals with HDAC11 (Homo sapiens, UniProt Q96DB2). Briefly: Deacetylation activity selectivity, HDAC11. Format: biochemical.
From the text: as §1

The test system of another series is BXPC-3 cells. Kind of series: MTT proliferation assay, BXPC-3. It is filed as cell-based. To be noted: 72 h. The protocol:
BXPC-3 and PANC-1 cells were plated in 96-well plates at 5000 cells per well. After 12 h attachment, varying concentrations of 8a were added into the culture medium for 72 h. Then 10 μL MTT (5 mg/ml) solution was added into per well for 4 h at 37 °C. After removing medium, formazan crystals were dissolved in 150 µL DMSO. The cells viability was quantified by measuring the absorbance at 570 nm.
A general note: Tetrazolium dyes change colour on reduction, which living cells bring about.

A further series concerns β-TC-6 cells. Kind of series: Cell glucose uptake assay, β-TC-6. It is filed as cell-based. Conditions: β-TC-6, 8a (3.125, 6.25, 12.5 μM) + insulin (100 nM) vs insulin only, 30 min. How it is done:
The NIT-1 and β-TC-6 cells were added to the wells of 12-well plates and incubated overnight. Then the culture medium without FBS was incubated for 6 h, and different concentrations of 8a (3.125, 6.25, 12.5 μM), insulin (100 nM) or their combination were added for 30 min. Glucose uptake was determined using a Glucose Uptake Assay Kit (Jiancheng, Nanjing).

For series [2], the system named is H3K9 acetylation (SIRT6 substrate). Kind of series: H3K9 acetylation in Hela cells, western blot. It is filed as cell-based. How it is done: Cells were harvested and lysed in a lysis buffer (solarbio, R0010) supplementing 1 mM PMSF and protease inhibitor (TargetMol, USA). […] Then, the membranes were detected by Tanon 5200 (Tanon, Beijing, China).
To investigate the SIRT6 activity at cellular levels, we examined the acetylation status of H3K9, which is a well-known SIRT6 substrate. […] As these compounds can show violet fluorescence, intracellular localizations of these compounds were evaluated by confocal microscopy.

For another series, the system named is HUVEC cells. Kind of series: MTT cytotoxicity, normal HUVEC cells. Conditions: 72 h. It is filed as cell-based.
The target in a further series is HDAC4 (Homo sapiens, UniProt P56524). Briefly: Deacetylation activity selectivity, HDAC4. It is filed as biochemical.
From the text: as §1

The test system of the next series is BXPC-3 xenografts. Briefly: BXPC-3 tumor xenograft in nude mice. It is filed as in vivo, BALB/c nude mice. How it is done:
Female BALB/c nude mice (14 ± 2 g, 4 weeks old) were purchase. About 2 × 10^6 of BXPC-3 cells were inoculated into nude mouse flanks. When the tumor volume reached approximately 100 mm^3, mice were randomly divided into four groups with six mice per group before treatment and then treated with vehicle, 8a (20 mg/kg), gemcitabine (10 mg/kg) and their combination every 2 days. Tumor volumes and body weight were measured every 3 days, and use the formula to calculate the tumor volume: V = (L × W × W)/2 (V, tumor volume; L, length; and W, width). Mice were sacrificed and tumor tissues were removed. Tumor tissues were fixed with paraformaldehyde (4%) and embedded with paraffin.
To further confirm whether 8a can enhance the antitumor effects of gemcitabine in vivo, the BXPC-3 PDAC xenografts were used. The mice with tumors received intraperitoneal injection of compound 8a (20 mg/kg), gemcitabine (10 mg/kg), or their combination once every 2 days for 4 weeks. Tumor volumes and body weight of mice were monitored every 3 days.

Each structure is given as a SMILES string.

HDAC7, sequence (Q8WUI4 whole entry): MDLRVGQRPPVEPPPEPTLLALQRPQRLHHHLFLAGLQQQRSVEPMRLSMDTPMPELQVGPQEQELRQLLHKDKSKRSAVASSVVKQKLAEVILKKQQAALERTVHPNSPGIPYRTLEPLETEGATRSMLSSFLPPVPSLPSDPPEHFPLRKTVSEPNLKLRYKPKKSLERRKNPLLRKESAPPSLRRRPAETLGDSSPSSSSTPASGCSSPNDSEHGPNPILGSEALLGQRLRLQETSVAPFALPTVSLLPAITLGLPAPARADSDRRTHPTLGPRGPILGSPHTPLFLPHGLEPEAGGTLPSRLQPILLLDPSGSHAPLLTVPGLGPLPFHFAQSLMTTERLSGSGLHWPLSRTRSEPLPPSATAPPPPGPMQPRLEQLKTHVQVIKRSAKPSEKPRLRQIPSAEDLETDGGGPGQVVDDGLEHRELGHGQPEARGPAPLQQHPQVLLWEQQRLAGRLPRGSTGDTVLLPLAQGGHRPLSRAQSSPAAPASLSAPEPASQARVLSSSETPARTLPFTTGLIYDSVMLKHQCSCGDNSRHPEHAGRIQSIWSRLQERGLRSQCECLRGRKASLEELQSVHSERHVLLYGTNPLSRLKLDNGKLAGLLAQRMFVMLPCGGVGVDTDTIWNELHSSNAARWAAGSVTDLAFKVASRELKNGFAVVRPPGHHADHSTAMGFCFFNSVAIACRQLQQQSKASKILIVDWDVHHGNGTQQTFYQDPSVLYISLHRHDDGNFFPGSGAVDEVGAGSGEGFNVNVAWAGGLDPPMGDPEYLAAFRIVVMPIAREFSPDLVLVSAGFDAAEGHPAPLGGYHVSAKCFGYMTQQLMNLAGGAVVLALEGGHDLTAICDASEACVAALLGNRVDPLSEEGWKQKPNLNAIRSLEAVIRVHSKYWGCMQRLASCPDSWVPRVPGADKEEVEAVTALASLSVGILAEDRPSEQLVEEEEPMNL
HDAC11, sequence (Q96DB2 whole entry, species assumed): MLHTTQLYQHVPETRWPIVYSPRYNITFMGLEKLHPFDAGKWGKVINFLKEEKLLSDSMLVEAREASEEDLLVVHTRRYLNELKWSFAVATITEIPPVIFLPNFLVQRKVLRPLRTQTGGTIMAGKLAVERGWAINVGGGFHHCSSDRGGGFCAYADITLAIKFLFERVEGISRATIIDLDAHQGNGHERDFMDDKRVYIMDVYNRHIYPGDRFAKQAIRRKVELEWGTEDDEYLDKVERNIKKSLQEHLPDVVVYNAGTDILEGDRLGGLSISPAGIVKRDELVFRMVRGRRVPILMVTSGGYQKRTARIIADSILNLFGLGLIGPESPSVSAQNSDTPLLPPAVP
HDAC1, sequence (Q13547 whole entry, species assumed): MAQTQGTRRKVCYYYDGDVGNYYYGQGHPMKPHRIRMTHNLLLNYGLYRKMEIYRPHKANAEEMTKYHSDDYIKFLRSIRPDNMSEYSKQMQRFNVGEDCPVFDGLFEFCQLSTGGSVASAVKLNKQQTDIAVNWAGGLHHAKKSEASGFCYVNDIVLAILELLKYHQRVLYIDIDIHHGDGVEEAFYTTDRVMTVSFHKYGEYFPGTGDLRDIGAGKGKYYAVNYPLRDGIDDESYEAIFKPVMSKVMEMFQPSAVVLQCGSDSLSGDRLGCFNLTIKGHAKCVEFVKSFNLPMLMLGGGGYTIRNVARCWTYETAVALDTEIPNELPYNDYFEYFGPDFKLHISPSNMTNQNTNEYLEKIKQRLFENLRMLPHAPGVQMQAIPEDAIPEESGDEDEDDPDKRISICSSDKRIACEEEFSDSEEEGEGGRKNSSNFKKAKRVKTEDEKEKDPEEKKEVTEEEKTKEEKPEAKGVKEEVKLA
HDAC4, sequence (P56524 whole entry, species assumed): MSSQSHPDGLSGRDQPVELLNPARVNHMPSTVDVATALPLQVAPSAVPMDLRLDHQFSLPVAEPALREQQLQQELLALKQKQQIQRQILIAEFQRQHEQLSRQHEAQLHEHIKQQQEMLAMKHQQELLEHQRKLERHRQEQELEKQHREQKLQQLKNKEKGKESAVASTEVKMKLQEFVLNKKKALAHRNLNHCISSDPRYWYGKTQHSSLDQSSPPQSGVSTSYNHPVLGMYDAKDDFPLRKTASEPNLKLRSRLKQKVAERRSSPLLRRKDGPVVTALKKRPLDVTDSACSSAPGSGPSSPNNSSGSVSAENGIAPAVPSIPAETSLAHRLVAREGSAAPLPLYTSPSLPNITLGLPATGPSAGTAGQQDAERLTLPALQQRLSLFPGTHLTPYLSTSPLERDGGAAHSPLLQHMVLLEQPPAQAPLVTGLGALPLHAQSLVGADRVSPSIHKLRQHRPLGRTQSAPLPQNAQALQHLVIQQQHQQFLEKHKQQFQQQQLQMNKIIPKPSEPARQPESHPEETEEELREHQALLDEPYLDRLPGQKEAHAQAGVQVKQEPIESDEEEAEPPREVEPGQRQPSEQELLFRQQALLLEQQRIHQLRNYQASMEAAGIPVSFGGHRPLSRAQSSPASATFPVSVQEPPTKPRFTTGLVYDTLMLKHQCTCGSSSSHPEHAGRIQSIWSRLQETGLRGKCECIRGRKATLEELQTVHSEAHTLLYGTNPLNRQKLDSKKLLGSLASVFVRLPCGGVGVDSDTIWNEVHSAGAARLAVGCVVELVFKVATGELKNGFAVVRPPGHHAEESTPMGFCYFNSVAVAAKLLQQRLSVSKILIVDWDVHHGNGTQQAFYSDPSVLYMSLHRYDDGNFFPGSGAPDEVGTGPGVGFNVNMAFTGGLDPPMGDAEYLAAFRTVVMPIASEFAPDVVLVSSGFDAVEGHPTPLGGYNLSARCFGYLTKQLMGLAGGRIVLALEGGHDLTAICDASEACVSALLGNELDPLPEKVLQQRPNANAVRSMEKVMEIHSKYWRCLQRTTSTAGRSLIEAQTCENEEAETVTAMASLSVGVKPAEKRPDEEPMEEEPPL

By IC50 is commonly meant the concentration needed to halve the response being measured. Consider `Br.CN(C)C(SCCCCCCn1cnc2c(-c3cc(Br)c(Br)[nH]3)nccc21)=[N+](C)C.[Cl-]` [Compound 8a], for which the IC50 against HDAC1 was greater than 200 µM; at HDAC7, greater than 200 µM; on HDAC11, greater than 200 µM; in the series with BXPC-3 cells, 7.56 µM; with HUVEC cells, 41 µM; on HDAC4 it was greater than 200 µM. Moreover, the “blood glucose and insulin concentration” value in [1] is listed as “no significant difference”. The glucose uptake entry in the series with β-TC-6 cells is listed as “no significant effect”. Moreover, in series [2], the “acetylation levels of H3K9” value is recorded as “significantly increased”. For the same compound, in the series on BXPC-3 xenografts (8a 20 mg/kg i.p. once every 2 days for 4 weeks, vs control mice), the tumor inhibition is 27%. In addition, the “Ac-H3K9 in tumor tissue” value with BXPC-3 xenografts (western blotting of tumor tissue samples, 8a 20 mg/kg) is listed as “elevated”.
